Source: the kinase profiling compilation of Christmann-Franck et al. (2016)
Values belong to the compound of their own block, whether it stands above or below them.

How the values were obtained:
[1] = tested on: MET (human), P08581 [M1250T]; assay: Caliper, Mobility shift assay off-chip
[2] = tested on: AKT2 (human), P31751 [S474D]; assay: radiometric filter-binding kinase assay, Kinaseprofiler; settings: compound 1.0 µM; ATP 200 µM
ALK (human) = ALK (human) (UniProt Q9UM73); assay: as above; settings: compound 1.0 µM; ATP 200 µM
CAMK1 (human) = CAMK1 (human) (UniProt Q14012); assay: as above; settings: compound 1.0 µM; ATP 200 µM
CDK1 CCNB1 (human) = CDK1 CCNB1 (human) (UniProt P06493+P14635); assay: as above; settings: compound 1.0 µM; ATP 45 µM
CDK5 CDK5R1 p25 (human) = CDK5 CDK5R1 p25 (human) (UniProt Q00535+Q15078); assay: as above; settings: compound 1.0 µM; ATP 15 µM
CDK9 CCNT1 (human) = CDK9 CCNT1 (human) (UniProt P50750+O60563); assay: as above; settings: compound 1.0 µM; ATP 45 µM
CSNK1D (human) = CSNK1D (human) (UniProt P48730); assay: as above; settings: compound 1.0 µM; ATP 70 µM
DAPK2 (human) = DAPK2 (human) (UniProt Q9UIK4); assay: as above; settings: compound 1.0 µM; ATP 10 µM
FGFR2 (human) = FGFR2 (human) (UniProt P21802); assay: as above; settings: compound 1.0 µM; ATP 90 µM
FGFR4 (human) = FGFR4 (human) (UniProt P22455); assay: as above; settings: compound 1.0 µM; ATP 155 µM
FLT1 (human) = FLT1 (human) (UniProt P17948); assay: as above; settings: compound 1.0 µM; ATP 200 µM
[3] = tested on: GSK3B (human), P49841 [H350L]; assay: as above; settings: compound 1.0 µM; ATP 15 µM
HCK (human) = HCK (human) (UniProt P08631); assay: as above; settings: compound 1.0 µM; ATP 70 µM
HIPK1 (human) = HIPK1 (human) (UniProt Q86Z02); assay: as above; settings: compound 1.0 µM; ATP 45 µM
IKBKB (human) = IKBKB (human) (UniProt O14920); assay: as above; settings: compound 1.0 µM; ATP 10 µM
ITK (human) = ITK (human) (UniProt Q08881); assay: as above; settings: compound 1.0 µM; ATP 200 µM
KIT (human) = KIT (human) (UniProt P10721); assay: as above; settings: compound 1.0 µM; ATP 200 µM
MAP3K9 (human) = MAP3K9 (human) (UniProt P80192); assay: as above; settings: compound 1.0 µM; ATP 45 µM
[4] = tested on: MAPKAPK2 (human), P49137 [A399G]; assay: as above; settings: compound 1.0 µM; ATP 90 µM
MELK (human) = MELK (human) (UniProt Q14680); assay: as above; settings: compound 1.0 µM; ATP 45 µM
NEK11 (human) = NEK11 (human) (UniProt Q8NG66); assay: as above; settings: compound 1.0 µM; ATP 200 µM
NEK3 (human) = NEK3 (human) (UniProt P51956); assay: as above; settings: compound 1.0 µM; ATP 120 µM
NEK6 (human) = NEK6 (human) (UniProt Q9HC98); assay: as above; settings: compound 1.0 µM; ATP 45 µM
NEK7 (human) = NEK7 (human) (UniProt Q8TDX7); assay: as above; settings: compound 1.0 µM; ATP 45 µM
PIM2 (human) = PIM2 (human) (UniProt Q9P1W9); assay: as above; settings: compound 1.0 µM; ATP 15 µM
PKN2 (human) = PKN2 (human) (UniProt Q16513); assay: as above; settings: compound 1.0 µM; ATP 15 µM
PRKCI (human) = PRKCI (human) (UniProt P41743); assay: as above; settings: compound 1.0 µM; ATP 155 µM
PRKCZ (human) = PRKCZ (human) (UniProt Q05513); assay: as above; settings: compound 1.0 µM; ATP 15 µM
ROCK1 (human) = ROCK1 (human) (UniProt Q13464); assay: as above; settings: compound 1.0 µM; ATP 70 µM
[5] = tested on: ROS1 (human), P08922 [V2262A]; assay: as above; settings: compound 1.0 µM; ATP 200 µM
[6] = tested on: SGK1 (human), O00141 [S422D]; assay: as above; settings: compound 1.0 µM; ATP 90 µM
SRC (human) = SRC (human) (UniProt P12931); assay: as above; settings: compound 1.0 µM; ATP 200 µM
SRPK2 (human) = SRPK2 (human) (UniProt P78362); assay: as above; settings: compound 1.0 µM; ATP 10 µM
STK10 (human) = STK10 (human) (UniProt O94804); assay: as above; settings: compound 1.0 µM; ATP 200 µM
STK17A (human) = STK17A (human) (UniProt Q9UEE5); assay: as above; settings: compound 1.0 µM; ATP 10 µM
SYK (human) = SYK (human) (UniProt P43405); assay: as above; settings: compound 1.0 µM; ATP 15 µM
WNK2 (human) = WNK2 (human) (UniProt Q9Y3S1); assay: as above; settings: compound 1.0 µM; ATP 200 µM

inhibition ([1]; compound 0.1 µM): 87%
inhibition ([1]; compound 1.0 µM): 98.4%
SMILES: O=C(CCc1ccc2ccc3ncc(C4CCNCC4)cc3c(=O)c2c1)NCc1ccccn1

residual activity [2]: 89%
residual activity (ALK (human)): 0%
residual activity (CAMK1 (human)): 110%
residual activity (CDK1 CCNB1 (human)): 66%
residual activity (CDK5 CDK5R1 p25 (human)): 88%
residual activity (CDK9 CCNT1 (human)): 107%
residual activity (CSNK1D (human)): 98%
residual activity (DAPK2 (human)): 91%
residual activity (FGFR2 (human)): 12%
residual activity (FGFR4 (human)): 88%
residual activity (FLT1 (human)): 5%
residual activity [3]: 110%
residual activity (HCK (human)): 33%
residual activity (HIPK1 (human)): 116%
residual activity (IKBKB (human)): 98%
residual activity (ITK (human)): 18%
residual activity (KIT (human)): 78%
residual activity (MAP3K9 (human)): 61%
residual activity [4]: 104%
residual activity (MELK (human)): 38%
residual activity (NEK11 (human)): 118%
residual activity (NEK3 (human)): 104%
residual activity (NEK6 (human)): 93%
residual activity (NEK7 (human)): 112%
residual activity (PIM2 (human)): 98%
residual activity (PKN2 (human)): 92%
residual activity (PRKCI (human)): 108%
residual activity (PRKCZ (human)): 95%
residual activity (ROCK1 (human)): 107%
residual activity [5]: 71%
residual activity [6]: 96%
residual activity (SRC (human)): 125%
residual activity (SRPK2 (human)): 104%
residual activity (STK10 (human)): 78%
residual activity (STK17A (human)): 0%
residual activity (SYK (human)): 94%
residual activity (WNK2 (human)): 126%
SMILES: CN(C)S(=O)(=O)Nc1ccc2ccc3ncc(-c4cnn(C)c4)cc3c(=O)c2c1
